Laboratory results from US5696117A, “Benzoxazine antimicrobial agents” (Ortho Pharmaceutical Corporation, priority 1995, dated 1997).
In brackets after ≈: the same amount, converted by molar mass.

What was measured:
Kinase A and SpoOF = molecular target: T1, Kinase A and SpoOF (Bacillus subtilis, UniProt P16497); test: Autophosphorylation of Kinase A and Transphosphorylation of SpoOF Assay (HPK in vitro assay); assay type: biochemical; conditions: inhibition of KinA autophosphorylation / SpoOF transphosphorylation, inhibitor concentrations from 1 to 500 μM
T1 construct: made in house; host or cells: recombinant E. coli (overexpression)
T1 sequence (P16497 1-606): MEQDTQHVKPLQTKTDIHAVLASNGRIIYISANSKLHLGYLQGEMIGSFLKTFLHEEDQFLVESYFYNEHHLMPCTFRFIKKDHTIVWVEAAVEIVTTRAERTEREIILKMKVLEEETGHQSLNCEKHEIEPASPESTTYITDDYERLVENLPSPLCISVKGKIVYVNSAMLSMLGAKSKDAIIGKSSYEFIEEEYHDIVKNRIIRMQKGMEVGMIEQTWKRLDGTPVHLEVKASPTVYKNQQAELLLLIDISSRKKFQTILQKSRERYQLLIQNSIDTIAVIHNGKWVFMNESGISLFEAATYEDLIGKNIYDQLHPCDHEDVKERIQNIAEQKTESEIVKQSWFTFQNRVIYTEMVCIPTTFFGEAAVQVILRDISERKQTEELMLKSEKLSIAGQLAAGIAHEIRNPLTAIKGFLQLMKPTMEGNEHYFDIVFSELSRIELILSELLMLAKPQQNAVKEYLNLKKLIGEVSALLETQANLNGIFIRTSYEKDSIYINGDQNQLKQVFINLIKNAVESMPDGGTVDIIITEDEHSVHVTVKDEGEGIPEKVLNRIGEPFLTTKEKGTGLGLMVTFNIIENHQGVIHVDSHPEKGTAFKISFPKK
Outline: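 Recombinant KinA and SpoOF (from E. coli) preincubated 15 min on ice with compound (1.0 mM solution in 5% DMSO, stock), then 10 min at room temperature with [32P]ATP. Labelled proteins resolved by SDS gel, quantified by phosphoimager; IC50 from 1–500 μM compound range.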

gram positive bacteria = test: MIC antimicrobial assay, microdilution broth method (NCCLS), gram positive bacteria; assay type: cell-based; conditions: range over the gram positive test organisms; 35° C., 16-20 hours
Description: (§1) 2. MIC Anitimicrobial Assay
(§2) The in vitro antimicrobial activity of the compounds was determined by the microdilution broth method following the test method from the National Committee for Laboratory Standards (NCCLS). This method is described in the NCCLS Document M7-A2, Vol. 10, No. 8 "Methods for Dilution Antimicrobial Susceptibility Test for Bacteria that Grow Aerobically--Second Edition."
(§3) In this method two-fold serial dilutions of drug in cation supplemented Mueller-Hinton broth are added to wells in microdilution trays. The test organisms are prepared by adjusting the turbidity of actively growing broth cultures so that the final concentration of test organism after it is added to the wells is approximately 5×10^4 CFUs/well.
(§4) Following inoculation of the microdilution trays, the trays are incubated at 35° C. for 16-20 hours and then read. […] The amount of growth in the wells containing the test compound is compared with the amount of growth in the growth-control wells (no test compound) used in each tray. As set forth in Tables 1 and 2, compounds of the present invention were tested against a variety of Gram+ and Gram- pathogenic bacteria resulting in a range of activities, from 1→128 μg/mL depending on the organism tested. The following test organisms were utilized in the assay:
Enterococcus faecalis ATCC 29212
Enterococcus faecalis oc 3041
Enterococcus faecium oc 2993
Methicillin resistant Staphylococcus aureus oc 2089
Methicillin resistant Staphylococcus aureus oc667
Staphylococcus aureus ATCC 29213
Staphylococcus aureus ATCC 6538
Staphylococcus epidermidis oc 2603

gram negative bacteria = test: MIC antimicrobial assay, microdilution broth method (NCCLS), gram negative bacteria; assay type: cell-based; conditions: range over the gram negative test organisms; 35° C., 16-20 hours
Description: as §1, §2, §3, §4
Escherichia coli oc 2530 ss
Klebsiella pneumoniae oc 1943
Pseudomonas aeroginosa oc 161
Pseudomonas aeroginosa ATCC 27853

SMILES | IC50 (Kinase A and SpoOF) | MIC (gram positive bacteria) | MIC (gram negative bacteria)
NCc1ccc(OCCC2Oc3ccccc3N(Cc3cccc(Cl)c3)C2=O)cc1 (centres unmarked) [Compound 2, 2-[2-[4-(Aminomethyl)phenoxy]ethyl]-4-(3-chlorobenzyl)-3,4-dihydro-3-oxo-2H-1,4-benzoxazine] | 55 µM | 8 to 32 µg/mL (≈ 18.9 to 75.7 µM) | –
NCc1ccc(OCCC2Oc3ccccc3N(Cc3ccc(Cl)cc3)C2=O)cc1 (centres unmarked) [Compound 4, 2-[2-[4-(Aminomethyl)phenoxy]ethyl]-4-(4-chlorobenzyl)-3,4-dihydro-3-oxo-2H-1,4-benzoxazine] | 47 µM | 8 to 16 µg/mL (≈ 18.9 to 37.8 µM) | –
NCCc1ccc(OCCC2Oc3ccccc3N(Cc3ccc(Cl)cc3)C2=O)cc1 (centres unmarked) [Compound 6, 2-[2-[4-(2-Aminoethyl)phenoxy]ethyl]-4-(4-chlorobenzyl)-3,4-dihydro-3-oxo-2H-1,4-benzoxazine] | 61 µM | 1 to 2 µg/mL (≈ 2.29 to 4.58 µM) | 2 to 64 µg/mL (≈ 4.58 to 146 µM)
NCCc1cccc(OCCC2Oc3ccccc3N(Cc3ccc(Cl)cc3)C2=O)c1 (centres unmarked) [Compound 8, 2-[2-[3-(2-Aminoethyl)phenoxy]ethyl]-4-(4-chlorobenzyl)-3,4-dihydro-3-oxo-2H-1,4-benzoxazine] | 89 µM | 8 to 16 µg/mL (≈ 18.3 to 36.6 µM) | 8 to 128 µg/mL (≈ 18.3 to 293 µM)
NCCc1cccc(OCCC2Oc3ccccc3N(Cc3ccccc3Cl)C2=O)c1 (centres unmarked) [Compound 16, 2-[2-[3-(2-Aminoethyl)phenoxy]ethyl]-4-(2-chlorobenzyl)-3,4-dihydro-3-oxo-2H-1,4-benzoxazine] | 74 µM | 8 to 16 µg/mL (≈ 18.3 to 36.6 µM) | –
N=C(N)NCc1ccc(OCCC2Oc3ccccc3N(Cc3ccccc3Cl)C2=O)cc1 (centres unmarked) [Compound 19, 4-(2-Chlorobenzyl)-2-[2-[4-(guanidinomethyl)phenoxy]ethyl]-3,4-dihydro-3-oxo-2H-1,4-benzoxazine] | 16 µM | 1 to 4 µg/mL (≈ 2.15 to 8.6 µM) | –
N=C(N)NCCc1ccc(OCCC2CN(Cc3ccc(Cl)cc3)c3ccccc3O2)cc1 (centres unmarked) [Compound 22, 4-(4-Chlorobenzyl)-2-[2-[4-(2-guanidinoethyl)phenoxy]ethyl]-3,4-dihydro-2H-1,4-benzoxazine] | 41 µM | 2 to 4 µg/mL (≈ 4.3 to 8.6 µM) | –
N=C(N)NCCc1ccc(OCCC2CN(Cc3cccc(Cl)c3)c3ccccc3O2)cc1 (centres unmarked) [Compound 23, 4-(3-Chlorobenzyl)-2-[2-[4-(2-guanidinoethyl)phenoxy]ethyl]-3,4-dihydro-2H-1,4-benzoxazine] | 17 µM | 1 to 2 µg/mL (≈ 2.15 to 4.3 µM) | –
N=C(N)NCCc1ccc(OCCC2Oc3ccccc3N(Cc3ccc(Cl)cc3)C2=O)cc1 (centres unmarked) [Compound 26, 4-(4-Chlorobenzyl)-3,4-dihydro-2-[2-[4-(2-guanidinoethyl)phenoxy]ethyl]-3-oxo-2H-1,4-benzoxazine] | 68 µM | 2 to 4 µg/mL (≈ 4.18 to 8.35 µM) | –
NCc1ccc(OCCC2Oc3ccccc3N(Cc3cc(Cl)cc(Cl)c3)C2=O)cc1 (centres unmarked) [Compound 39, 2-{2-[4-(2-Aminomethyl)phenoxy]ethyl}-4-(3,5-dichlorobenzyl)-3,4-dihydro-3-oxo-2H-1,4-benzoxazine] | 46 µM | 4 to 16 µg/mL (≈ 8.75 to 35 µM) | –
N=C(N)NCCc1ccc(OCCC2Oc3ccccc3N(Cc3cc(Cl)cc(Cl)c3)C2=O)cc1 (centres unmarked) [Compound 40, 4-(3,5-Dichlorobenzyl)-3,4-dihydro-2-{2-[4-(2-guanidinoethyl)phenoxy]ethyl}-3-oxo-2H-1,4-benzoxazine] | 24 µM | 2 µg/mL (≈ 3.9 µM) | –
N=C(N)NCCc1ccc(OCCC2Oc3ccc(Cl)cc3N(Cc3cccc(Cl)c3)C2=O)cc1 (centres unmarked) [Compound 50, 6-Chloro-4-(3-chlorobenzyl)-2-{2-[4-(2-guanidinoethyl)phenoxy]ethyl}-3,4-dihydro-3-oxo-2H-1,4-benzoxazine] | 9 µM | 2 µg/mL (≈ 3.9 µM) | –
Cc1ccc2c(c1)OC(CCOc1ccc(CCNC(=N)N)cc1)C(=O)N2Cc1cccc(Cl)c1 (centres unmarked) [Compound 58, 4-(3-Chlorobenzyl)-2-{2-[4-(2-guanidinoethyl)phenoxy]ethyl}-3,4-dihydro-7-methyl-3-oxo-2H-1,4-benzoxazine] | 17 µM | 2 µg/mL (≈ 4.06 µM) | –
CN1C(=O)C(CCOc2ccc(CCNC(=N)N)cc2)Oc2ccccc21 (centres unmarked) [Compound 60, 3,4-Dihydro-2-{2-[4-(2-guanidinoethyl)phenoxy]ethyl}-4-methyl-3-oxo-2H-1,4-benzoxazine] | 55 µM | 16 to 34 µg/mL (≈ 43.4 to 92.3 µM) | –
CCCCCN1C(=O)C(CCOc2ccc(CCNC(=N)N)cc2)Oc2ccccc21 (centres unmarked) [Compound 61, 3,4-Dihydro-2-{2-[4-(2-guanidinoethyl)phenoxy]ethyl}-3-oxo-4-pentyl-2H-1,4-benzoxazine] | 41 µM | 4 to 8 µg/mL (≈ 9.42 to 18.8 µM) | 4 to 64 µg/mL (≈ 9.42 to 151 µM)
NCCc1cccc(OCCC2Oc3ccccc3N(Cc3cc(Cl)cc(Cl)c3)C2=O)c1 (centres unmarked) [Compound 64, 2-{2-[3-(2-Aminoethyl)phenoxy]ethyl}-4-(3,5-dichlorobenzyl)-3,4-dihydro-3-oxo-2H-1,4-benzoxazine] | 32 µM | 4 to 8 µg/mL (≈ 8.49 to 17 µM) | –
NCCc1cccc(OCCC2Oc3ccccc3N(Cc3cccc(Cl)c3)C2=O)c1 (centres unmarked) [Compound 70, 2-{2-[3-(2-Aminoethyl)phenoxy]ethyl}-4-(3-chlorobenzyl)-3,4-dihydro-3-oxo-2H-1,4-benzoxazine] | 65 µM | 8 to 16 µg/mL (≈ 18.3 to 36.6 µM) | –
N=C(N)NCCc1ccc(OCCC2Oc3ccccc3N(Cc3cccc(Cl)c3)C2=O)cc1 (centres unmarked) [Compound 72, 4-(3-Chlorobenzyl)-3,4-dihydro-2-{2-[4-(2-guanidinoethyl)phenoxy]ethyl}-3-oxo-2H-1,4-benzoxazine] | 30 µM | 2 to 4 µg/mL (≈ 4.18 to 8.35 µM) | –
NCc1cccc(OCCC2Oc3ccccc3N(Cc3cccc(Cl)c3)C2=O)c1 (centres unmarked) [Compound 74, 2-{2-[3-(Aminomethyl)phenoxy]ethyl}-4-(3-chlorobenzyl)-3,4-dihydro-3-oxo-2H-1,4-benzoxazine] | 81 µM | 8 to 16 µg/mL (≈ 18.9 to 37.8 µM) | –
NCCCc1ccc(OCCC2Oc3ccccc3N(Cc3cccc(Cl)c3)C2=O)cc1 (centres unmarked) [Compound 76, 2-{2-[4-(3-Aminopropyl)phenoxy]ethyl}-4-(3-chlorobenzyl)-3,4-dihydro-3-oxo-2H-1,4-benzoxazine] | 32 µM | 8 µg/mL (≈ 17.7 µM) | –
N=C(N)NCc1ccc(OCCC2Oc3ccccc3N(Cc3cccc(Cl)c3)C2=O)cc1 (centres unmarked) [Compound 78, 4-(3-Chlorobenzyl)-3,4-dihydro-2-{2-[4-(guanidinylmethyl)phenoxy]ethyl}-3-oxo-2H-1,4-benzoxazine] | 32 µM | 1 to 4 µg/mL (≈ 2.15 to 8.6 µM) | –
NCCc1ccc(OCCC2Oc3ccccc3N(Cc3cccc(Cl)c3)C2=O)cc1 (centres unmarked) [Compound 79, 2-{2-[4-(2-Aminoethyl)phenoxy]ethyl}-4-(3-chlorobenzyl)-3,4-dihydro-3-oxo-2H-1,4-benzoxazine] | 78 µM | 8 to 16 µg/mL (≈ 18.3 to 36.6 µM) | –
N=C(N)NCCc1ccc(OCCC2Oc3ccc([N+](=O)[O-])cc3N(Cc3ccccc3Cl)C2=O)cc1 (centres unmarked) [Compound 89, 3,4-Dihydro-2-{2-[4-(2-guanidinoethyl)-phenoxy]ethyl}-6-nitro-4-(2-chlorobenzyl)-3-oxo-2H-1,4-benzoxazine] | 17 µM | 1 to 4 µg/mL (≈ 1.91 to 7.63 µM) | –
N=C(N)NCCc1ccc(OCCC2Oc3ccc(N)cc3N(Cc3cccc(Cl)c3)C2=O)cc1 (centres unmarked) [Compound 92, 6-Amino-4-(3-chlorobenzyl)-3,4-dihydro-2-{2-[4-(2-guanidinoethyl)phenoxy]ethyl}-3-oxo-2H-1,4-benzoxazine] | 34 µM | 2 to 16 µg/mL (≈ 4.05 to 32.4 µM) | –
N=C(N)NCc1ccc(OCCC2CN(Cc3ccccc3Cl)c3ccccc3O2)cc1 (centres unmarked) [Compound 145, 2-[2-[4-(2-guanidinomethyl)phenoxy]ethyl]-4-(2-chlorobenzyl)-3,4-dihydro-2H-1,4-benzoxazine] | 23 µM | 1 to 2 µg/mL (≈ 2.22 to 4.43 µM) | –
